Data as given in patent publication US20240261302A1, “METHODS OF TREATING NEURODEGENERATIVE DISEASES OR CONDITIONS” (FloraScience Inc., priority 2023, published 2024).

Legend:
HT22 cells [1] = test: Cellular Lipid Peroxidation Measurement (C11-BODIPY); type: cell-based, mouse
Protocol: Lipid Peroxidation MeasurementsHT22 cells were seeded onto 96-well black walled plates at a density of 3,000 cells/well in DMEM supplemented with 10% FBS and 1% antibiotics. After the desired treatments, cells were labeled with 2.5 μM C11-BODIPY 581/591 (oxidized form Ex/Em=488/520 nm) at 37° C. for 2 hr. Experiments were performed according to the manufacturer's instructions. Fluorescence was measured on a SpectraMax M5 microplate reader. Data were normalized for total protein/well. Each condition was analyzed in twelve wells per independent experiment (n=12). Results were presented as the percentage of the controls with vehicle alone. Results were verified by live-cell imaging under a fluorescence microscope.

[2] = Cell-free, liposome-based assay of lipid peroxidation (STY-BODIPY); type: biochemical; conditions: test compounds 10 μM
Protocol: For the cell-free, liposome-based assay, STY-BODIPY (1.5 μM) and liposomes of egg-PC (1 mM) (Avanti Polar Lipids Inc, Cat #840051P, AL) in TBS (pH 7.4) were added to an opaque 96-well plate. This was followed by the addition of test compounds (10 μM). The plate was incubated for 30 min at 37° C. and then vigorously mixed for 5 min. The autoxidation was initiated by the addition of V-70 (0.5 mM) (Fujifilm Wako, Cat #001-70078, Japan), followed by additional mixing for 5 min. Data were acquired at Ex/Em=488/518 nm every 15 min at 37° C. on a SpectraMax M5 microplate reader. Data were transformed into [ox-STY-BODIPY] by taking the raw fluorescent values of the saturated curve of control DMSO and dividing them by the initial concentration of reduced STY-BODIPY ([…]). Samples were analyzed in quadruplicate in four independent experiments (n=4).

HT22 cells [3] = test: Seahorse XF Analysis (mitochondrial stress test) in HT22 cells; type: cell-based, mouse
Protocol: Seahorse XF Analysis. The assay procedure was previously described. Cellular oxygen consumption rates (OCR) were assayed with a XF Cell Mito Stress Test Kit using a Seahorse XFe96 Extracellular Flux Analyzer (Seahorse Bioscience, North Billerica, MA). Complete Seahorse XF DMEM assay medium was supplemented with 10 mM glucose, 1 mM pyruvate and 2 mM L-glutamine, at pH 7.4. Mitochondrial ETC inhibitors were used at the following concentrations: 1.5 μM oligomycin, 2 μM FCCP, and 0.5 μM of a 1:1 mixture of rotenone and antimycin A. Analyses were conducted using Wave software and XF Report Generators (Agilent Technologies). The sensor cartridge for the XFe analyzer was hydrated overnight at 37° C. before the experiment. OCR data were normalized for total protein/well. Each condition was analyzed in 20-40 wells per independent experiment (n=20-40).
For HT22 cells, 3,000 cells/well were seeded onto the Seahorse XFe96 plates under normal culture condition as described above. The next day, cells were pretreated with CBN at the desired concentrations for 1 hr followed by addition of RSL3 (50 nM) and coincubation for 16 hr. Immediately before the assay, the culture medium in the plates was replaced with complete Seahorse XF DMEM assay medium. The plates were incubated for 1 hr at 37° C. prior to the XF Cell Mito Stress tests according to the manufacturer's instructions.

[4] = Trolox Equivalent Antioxidant Capacity (TEAC) Assay; type: biochemical; conditions: 5 to 10 μM, compared to Trolox at 5 μM
Protocol: Trolox Equivalent Antioxidant Capacity (TEAC) Assay. Briefly, an aqueous 2,2′-azino-bis(3-ethylbenzothiazoline-6-sulfonic acid) (ABTS) solution (7 mM) was treated with potassium persulfate (K2S2O8) (2.5 mM) overnight at room temperature in the dark and diluted in water to an OD value of 0.7 at 734 nm. 190 μL of the diluted ABTS solution was added to a 96-well plate containing 10 μL of test compounds or Trolox at the desired concentrations. The plate was vigorously mixed and incubated for 4 min at room temperature in the dark. Optical absorbance was measured at 734 nm on a SpectraMax M5 microplate reader. The decrease in absorbance of the ABTS radical cation indicates the presence of antioxidants. Samples were analyzed in eight wells per independent experiment (n=8). The TEAC values of each sample were presented as the percentage of the standard Trolox at 5 μM.

HT22 cells [5] = test: Reactive Oxygen Species Measurement (CellROX, MitoSOX); type: cell-based, mouse
Protocol: Reactive Oxygen Species Measurement. HT22 cells were seeded onto 96-well black walled plates at a density of 5,000 cells/well in DMEM supplemented with 10% FBS and 1% antibiotics. After the desired treatments, whole cell ROS and mitochondrial superoxide ROS were detected with CellROX Green reagent (Ex/Em=485/520 nm) and MitoSOX Red reagent (Ex/Em=510/580 nm), respectively. Experiments were performed according to the manufacturer's instructions. Fluorescence was measured on a SpectraMax M5 microplate reader. Data were normalized for total protein/well. Each condition was analyzed in sixteen wells per independent experiment (n=16). Results were presented as the percentage of the controls with vehicle alone. Results were verified by live-cell imaging under a fluorescence microscope.

[6] = cited from earlier work
HT22 cells [7] = test: Total GSH Measurements; type: cell-based, mouse; conditions: 5 μM
Protocol: Total GSH Measurements. HT22 cells were seeded onto 35 mm dishes at a density of 70,000 cells/dish in DMEM supplemented with 10% FBS and 1% antibiotics. After the desired treatments, the cells were scraped into ice-cold PBS and the cell pellets collected by centrifugation (500 g). The pellets were resuspended in PBS and 10% sulfosalicylic acid was added at a final concentration of 3.3% to the cells. Proteins were pelleted by centrifugation and the supernatant neutralized. Total GSH was determined by the recycling assay based on the reduction of 5,5-dithiobis(2-nitrobenzoic acid) with glutathione reductase and NADPH and normalized to protein recovered from the acid-precipitated pellet by treatment with 0.2 N NaOH at 37° C. overnight and measured by the BCA protein assay (Pierce, Rockford, IL, USA). Samples were analyzed in four dishes per independent experiment (n=4).

In the case of `CCCCCc1cc(O)c2c(c1)OC(C)(C)c1ccc(C)cc1-2` [CBN, 6,6,9-Trimethyl-3-pentyl-benzo[c]chromen-1-ol], the “RSL3-induced cellular lipid peroxidation” value (HT22 cells [1]; 50 nM RSL3, 16 hr, p<0.0001) is reported as “effectively suppressed”, the “basal cellular lipid peroxidation, compound alone” value (HT22 cells [1]; CBN 5 μM, ferrostatin 10 μM, 16 hr) is reported as “neither CBN (5 μM) nor ferrostatin (10 μM) alone changed basal levels of lipid peroxidation” and the “inhibition of lipid peroxidation, cell-free” value [2] is reported as “showed no inhibition”. The “ATP production, compound alone” value (HT22 cells [3]; 10 μM) was “partially reduced ATP production”, the “basal and maximal mitochondrial respiration, compound alone” value (HT22 cells [3]; 10 μM) was “partially decreased both basal and maximal mitochondrial respiration” and the “mitochondrial respiration and ATP production with RSL3” value (HT22 cells [3]; 10 μM pretreatment, RSL3 50 nM 16 hr) was “maintenance of mitochondrial respiration and ATP production”. The “capacity to scavenge total free radicals (TEAC)” value [4] was “relatively weak capacity”, the “RSL3-induced ROS production at cellular and mitochondrial levels” value (HT22 cells [5]; 50 nM RSL3, 16 hr) was “suppressed” and the “cellular and mitochondrial ROS (redox status), compound alone” value (HT22 cells [5]; 5 μM, 16 hr) was “did not affect the redox status of cells or mitochondria”. For the same molecule, the bioavailability ([6]; after oral or inhaled administration) was 10 to 40%, the brain penetrance ([6]; animals and humans) was “good brain penetrance” and the “metabolic stability compared to THC” value ([6]; human, in vivo) was “metabolically more stable”. The “total GSH levels” value (HT22 cells [7]) was “no impact”.
